# Laboratory results published in PMC3124571 (Biochemical pharmacology, 2011).
# Where two headings read alike, the source gives them in different places.
# Legend:
# [1] = test system: TB and EB formation by baboon placental microsomes; details: placental microsomes 1 mg/ml, bupropion 30 µM, 40 min; menadione 100µM, 18β-GA 0.1µM, flufenamic acid 5µM, barbital, 4-methylpyrazole, dicumarol 500µM
# [2] = test system: TB and EB formation by baboon hepatic microsomes; details: hepatic microsomes 1 mg/ml, bupropion 30 µM, 40 min; menadione 100µM, 18β-GA 0.1µM, flufenamic acid 5µM, barbital, 4-methylpyrazole, dicumarol 500µM
# [3] = Biotransformation of bupropion by baboon placental microsomes; details: baboon (Papio cynocephalus), pH 7.4, apparent Km
# [4] = test system: baboon hepatic microsomes; experiment: Biotransformation of bupropion by baboon hepatic microsomes
# [5] = as above; details: female, baboon (Papio cynocephalus), liver microsomes, pH 7.4, apparent Km
# [6] = test system: EB formation (bupropion carbonyl reduction); aldo-ketoreductase (flufenamic acid); experiment: in vitro; details: baboon (Papio cynocephalus), liver microsomes, probe bupropion 30 µM (≈Km)
# [7] = test system: TB formation (bupropion carbonyl reduction); carbonyl reductase (menadione), aldo-ketoreductase (flufenamic acid); experiment: in vitro; details: baboon (Papio cynocephalus), liver microsomes, probe bupropion 30 µM (≈Km)
# [8] = test system: TB formation (bupropion carbonyl reduction); carbonyl reductase (menadione), aldo-ketoreductase (flufenamic acid); experiment: in vitro; details: baboon (Papio cynocephalus), placental microsomes, probe bupropion 30 µM (≈Km)
# [9] = test system: EB formation (bupropion carbonyl reduction); carbonyl reductase (menadione), aldo-ketoreductase (flufenamic acid); experiment: in vitro; details: baboon (Papio cynocephalus), placental microsomes, probe bupropion 30 µM (≈Km)
# [10] = biological target: carbonyl-reducing enzymes of baboon placental microsomes; format: biochemical; details: read-out: IC50 (EB formation, placental microsomes)
# [11] = biological target: carbonyl-reducing enzymes of baboon hepatic microsomes; format: biochemical; details: read-out: IC50 (TB formation, hepatic microsomes); n = 3
# [12] = biological target: carbonyl-reducing enzymes of baboon placental microsomes; format: biochemical; details: read-out: IC50 (TB formation, placental microsomes)
# [13] = test system: OH-BUP formation by baboon hepatic microsomes
compound,measurement,setting,value
CC1(C)[C@@H](O)CC[C@]2(C)[C@H]3C(=O)C=C4[C@@H]5C[C@@](C)(C(=O)O)CC[C@]5(C)CC[C@@]4(C)[C@]3(C)CC[C@@H]12 [18β-glycyrrhetinic acid],inhibition of EB formation,[1],80%
same,inhibition of TB formation,[1],80%
same,inhibition of TB formation,[2],80%
CC(NC(C)(C)C)C(=O)c1cccc(Cl)c1 (stereo not shown) [bupropion],Km at 40 min,[3]; reduction of bupropion to EB,32 ± 14 µM
same,Km at 40 min,[3]; reduction of bupropion to TB,20 ± 14 µM
same,"Vmax, EB formation",[4],46 ± 8 pmol mgprotein^−1 min^−1
same,"Vmax, TB formation",[4],116 ± 19 pmol mgprotein^−1 min^−1
same,Km at 30 min,"[5]; hydroxylation of bupropion to OH-BUP, bupropion 10–400µM",36 ± 6 µM
same,Km at 30 min,[5]; reduction of bupropion to EB,32 ± 3 µM
same,Km at 30 min,[5]; reduction of bupropion to TB,28 ± 2 µM
O=C(O)c1ccccc1Nc1cccc(C(F)(F)F)c1 [flufenamic acid],IC50 at 40 min,[6],7.7 µM
same,IC50 at 40 min,[7],11.4 µM
same,inhibition at 40 min,[7],40%
same,IC50 at 40 min,[8],9.9 µM
same,inhibition at 40 min,[8],40%
same,IC50 at 40 min,[9],5.6 µM
same,inhibition at 40 min,[9],40%
"CC1(C)[C@@H](O)CC[C@]2(C)[C@H]3C(=O)C=C4[C@@H]5C[C@@](C)(C(=O)O)CC[C@]5(C)CC[C@@]4(C)[C@]3(C)CC[C@@H]12 [18β-GA, 18β-glycyrrhetinic acid]",IC50,[10],0.022 µM
same,IC50,[11],0.015 µM
same,IC50,[12],0.025 µM
CC1=CC(=O)c2ccccc2C1=O [menadione],IC50 at 40 min,[7],47 µM
same,IC50 at 40 min,[8],27.9 µM
same,IC50 at 40 min,[9],30.3 µM
C=C(C)[C@@H]1CCC2=CC(=O)C[C@@H](C)[C@]2(C)C1 [(+)-nootkatone],inhibition,[13],10 to 15%
CCC1(CC)C(=O)NC(=O)NC1=O [barbital],inhibition of EB formation,[1],did not affect
same,inhibition of TB formation,[1],did not affect
same,inhibition of EB formation,[2],did not affect
same,inhibition of TB formation,[2],did not affect
